Source: patent US20050282911A1, “Memantine for the prevention or reduction of suicidality and for treatment of major depression associated with suicidality” (priority 2003, published 2005)
Entries after “also recorded” stand apart in the source; their conditions may differ.

How the values were obtained:
[1] = cited from earlier work
[2] = tested on: patients with depression of Alzheimer's disease; test: Study MEM-MD-17: memantine in depression of Alzheimer's disease, suicide items of CSDD, MADRS, HAMD; assay type: in vivo, human; design: key to Change from Baseline in CSDD item #16 (suicide item): change in item score; 0=absent, 1=mild to intermittent, 2=severe; Change from Baseline in MADRS item #10 (suicide item) / Change from Baseline in HAMD item #3 (suicide item): scale not given here
Method: The objective of this study (MEM-MD-17) was to evaluate the safety and efficacy of memantine and memantine in combination with escitalopram in patients with depression of Alzheimer's disease.
The clinical study was conducted in two phases —12-weeks of open-label treatment with memantine (MEM) followed by 12-weeks of randomized double-blind treatment with memantine+placebo (MEM+PBO) or memantine+escitalopram (MEM+SCT).
Study design. Patients were started on memantine 5 mg/day which was increased to 10 mg/day at end of Week 1. The dose could be further increased to a maximum of 20 mg/day in patients with inadequate response in weekly increments of 5 mg. At end of Week 12, patients were randomized to one of the two treatment groups: MEM+PBO or MEM+SCT. The dose of memantine during the double-blind treatment period was fixed at the same level as at the end of Week 12 and the dose of escitalopram was fixed at 10 mg. Dose adjustments during the double-blind period were not permitted.
Patient Population. A total of 15 patients were enrolled in 2 sites. Three of the 15 patients discontinued during the open-label phase. The remaining 12 were randomized to double-blind treatment, 5 in the MEM+PBO treatment group, and 7 in the MEM+SCT treatment group. A total of 10 patients completed the study.
Endpoints. Several rating scales were used to assess efficacy for depression. The Cornell Scale for Depression in Dementia (CSDD); the HAMD; and the MADRS. The HAMD and MADRS have been described above.
CSDD. This is a […] scale which is subdivided into five sections: (A) Mood-Related Signs (questions 1-4); (B) Behavioral Disturbances (questions 5-8); (C) Physical Signs (questions 9-11); (D) Cyclic Functions (questions 12-15); and (E) Ideational Disturbances (questions 16-19). Question 16 is explicitly directed to suicidal ideation. The scoring system ranges from a=unable to evaluate; 0=absent; 1=mild to intermittent; and 2=severe.
Statistics. The efficacy analyses were based on the ITT population using both last observation carried forward (LOCF) and observed cases (OC) approaches. For each of the parameters, descriptive statistics were presented for the actual values and change from baseline by visit. For categorical variables, frequency distributions were presented.

[3] = tested on: patients with major depressive disorder (MDD); test: Open-label 12-week study of memantine in MDD (MEM-MD-09): safety and adverse events; assay type: in vivo, human
Method: Study Design. The study was designed as a single-center, open-label, flexible dose 12-week study. Memantine was to be administered at 20 mg/day (10 mg b.i.d.) (titrated over a 4 week period), and, if warranted, up-titrated to a maximum of 40 mg/day (20 mg b.i.d.) (titrated in increments of 10 mg/day after Week 4).
Drug Treatment. All eight patients were initially given 5 mg/day and titrated over a 3-week period to a minimum dose of 20 mg/day. Patients with an unsatisfactory therapeutic response (CGI-I score greater than 2) could increase to a maximum of 40 mg/day (2 patients, 30 mg/day and 40 mg/day, respectively). One patient was titrated to 30 mg/day after Week 8, and […] after Week 10. The mean treatment duration was 82 days (range: 57-86 days) and the mean daily dose was 18.1 mg/day.
Safety. Safety was assessed throughout the course of the study by monitoring vital signs and spontaneously reported adverse events.

In the case of `CC12CC3CC(C)(C1)CC(N)(C3)C2.Cl` [Memantine, 1-amino-3,5-dimethyladamantane hydrochloride], the “solubility in aqueous media” value [1] is listed as “highly soluble”, the “Change from Baseline in CSDD item #16 (suicide item)” value ([2]; Week 12, ITT Population, N = 5 who received memantine throughout, baseline 0.4) is listed as −0.4 and the “Change from Baseline in HAMD item #3 (suicide item)” value ([2]; Week 12, ITT Population, N = 5 who received memantine throughout, baseline 0.8) is listed as −0.8. The “Change from Baseline in MADRS item #10 (suicide item)” value ([2]; Week 12, ITT Population, N = 5 who received memantine throughout, baseline 1.0) was −1.0, the “Change from Baseline in CSDD item #16 (suicide item)” value ([2]; Week 12, LOCF, ITT Population, N = 15, baseline 0.4) was −0.3 and the “Change from Baseline in HAMD item #3 (suicide item)” value ([2]; Week 12, LOCF, ITT Population, N = 15, baseline 0.5) was −0.5. For the same compound, the “Change from Baseline in MADRS item #10 (suicide item)” value ([2]; Week 12, LOCF, ITT Population, N = 15, baseline 0.9) was −0.6, the “Change from Baseline in CSDD item #16 (suicide item)” value ([2]; Week 24, ITT Population, N = 5 who received memantine throughout, baseline 0.4) was −0.3 and the “Change from Baseline in HAMD item #3 (suicide item)” value ([2]; Week 24, ITT Population, N = 5 who received memantine throughout, baseline 0.8) was −0.5. The “Change from Baseline in MADRS item #10 (suicide item)” value ([2]; Week 24, ITT Population, N = 5 who received memantine throughout, baseline 1.0) was −0.5, the “suicidality as measured by 3 different depression rating instruments” value ([2]; change from Baseline at Weeks 12 and 24, hydrochloride) was “modest but consistent numerical improvement in suicidality; also recorded: trend towards reduced suicidal thoughts and ideation” and the “clinical laboratory parameters, vital signs or ECG values” ([3]; 20-40 mg/day, 12 weeks) was “no safety findings of concern”. For the same compound, the “deaths, serious adverse events, discontinuations due to adverse events” value ([3]; 20-40 mg/day, 12 weeks) was “No deaths, serious adverse events or discontinuations due to adverse events”, the safety and tolerability ([3]; 20-40 mg/day, 12 weeks) was “safe and well tolerated” and the “Number of Patients Reporting TEAE: Amnesia” value ([3]; Safety Population, N = 8) was 2 patients. The “Number of Patients Reporting TEAE: Anxiety” value ([3]; Safety Population, N = 8) was 2 patients, the “Number of Patients Reporting TEAE: Dizziness” value ([3]; Safety Population, N = 8) was 2 patients and the “Number of Patients Reporting TEAE: Headache” value ([3]; Safety Population, N = 8) was 2 patients. The “Number of Patients Reporting TEAE: Influenza-like Symptoms” value ([3]; Safety Population, N = 8) was 2 patients, the “Number of Patients Reporting TEAE: Insomnia” value ([3]; Safety Population, N = 8) was 2 patients and the “Number of Patients Reporting TEAE: Patients with at least one TEAE” value ([3]; Safety Population, N = 8) was 8 patients. For the same compound, the “Number of Patients Reporting TEAE: Somnolence” value ([3]; Safety Population, N = 8) was 3 patients.
